The data set deals with P. falciparum malaria. Description: Phase 1/2 open-label imatinib monotherapy trial vs standard-of-care (SOC). The data set is classed as in vivo, human. The protocol: Generic imatinib mesylate was purchased from TEVA Pharmaceuticals (Jerusalem, Israel) and was provided to patients in two 200 mg tablets per dose to conform with the usual quantity of imatinib indicated for treatment of chronic myelogenous leukemia. CV-Artecan, the standard-of-care (SOC) for treatment of P. falciparum malaria in Vietnam was purchased from OPC Pharmaceutical (Ho Chi Minh City, Vietnam) and was administered to patients as a tablet containing 40 mg dihydroartemisinin plus 320 mg piperaquine phosphate.
P. falciparum-infected males of age 16-55 years with no complicating co-morbidities that had not received an anti-malarial drug within the previous 4 weeks were eligible for two trials, i.e., imatinib monotherapy and imatinib plus SOC (Im+SOC) triple combination therapy. Those individuals who met eligibility criteria and provided informed written consent were enrolled in the trial.
The phase 1/2 “imatinib monotherapy trial” was an open-label trial aimed at determining the safety and tolerability of imatinib in adult male patients with uncomplicated P. falciparum malaria. Patients were randomly assigned to either a standard-of-care (SOC) control arm (n=8) in which they received 40 mg dihydroartemisinin plus 320 mg piperaquine phosphate orally twice (12 hours apart) on the first day and then once a day on the following 2 days, or an imatinib monotherapy arm (n=7) in which they received 400 mg of imatinib mesylate orally with a meal and full glass of water once a day for five days.
During both trials, patient temperatures and peripheral blood parasite levels were monitored before, during and after the trial on days 0, 1, 2, 3, 5, 7, 28, and 42. Patients were also examined for the usual symptoms of P. falciparum malaria, including fever, chills, headache, fatigue, anorexia, and mild diarrhea.
Primary endpoints for both studies were safety and tolerability. Secondary endpoints were reduction in parasitemia for the imatinib monotherapy study and both reduction in parasitemia and decline in pyrexia for the Im+SOC study. Safety and tolerability were assessed at protocol-specified time points and adverse events were classified as toxicities not normally associated with P. falciparum malaria, including edema, rashes, and severe diarrhea, etc. […] Attribution of imatinib to adverse events was assessed using a 5-point scale: not related, unlikely related, possibly related, probably related, and definitely related.
A mixed ANOVA was conducted to determine the effect of drug treatment on parasitemia and pyrexia. Post-hoc multi-comparison testing was used to determine which time points were statistically different. […] SOC treatment cohorts from each individual trial were analyzed separately. […]

Structures can show the parent of a compound that is named as a salt.

Turning to `Cc1ccc(NC(=O)c2ccc(CN3CCN(C)CC3)cc2)cc1Nc1nccc(-c2cccnc2)n1` [imatinib, imatinib mesylate], the “drug-related toxicity (analyses of blood parameters and body temperatures)” value (400 mg imatinib orally once a day for five days) was “no evidence of drug-related toxicity”. The “participants who experienced a rise in parasitemia and had to be transferred to SOC” value (imatinib alone, n=7) is “two of the seven”. In addition, the “apparent accelerated decrease in pyrexia vs SOC (mixed ANOVA, FIG. 1D)” value (p-value=0.7029) is reported as “did not achieve statistical significance”. For the same molecule, the “number of parasitized cells per microliter of blood (FIG. 1A)” value (peripheral blood, before, during and after treatment, n=7) is reported as “decrease”.

Source of the values: patent US20250025461A1, “TREATMENT OF SEVERE AND UNCOMPLICATED MALARIA” (PURDUE RESEARCH FOUDATION, priority 2021, published 2025).
